Data from ChEMBL document CHEMBL1201862, “PubChem BioAssay data set” (2004).
The source made the active and inactive calls. Cut-off read from the data, not from the text of the source, for most assays here: actives have a measured EC50 and inactives only a lower limit.

Experiments:
[1] = biological target: FAD-linked sulfhydryl oxidase ALR (Homo sapiens, UniProt P55789); test: inhibitors of human ALR sulfhydryl oxidase, dose response, biochemical, H2O2 detection, luminescence, cherry-pick (AID 493248)
Sequence of FAD-linked sulfhydryl oxidase ALR (P55789 whole entry): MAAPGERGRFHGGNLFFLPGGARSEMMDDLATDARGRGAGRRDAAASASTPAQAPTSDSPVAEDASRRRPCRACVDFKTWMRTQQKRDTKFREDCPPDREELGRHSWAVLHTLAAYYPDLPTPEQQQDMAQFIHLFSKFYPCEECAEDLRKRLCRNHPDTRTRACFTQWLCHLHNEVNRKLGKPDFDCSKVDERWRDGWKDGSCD

[2] = biological target: T1, Heat shock factor protein 1 (Mus musculus, UniProt P38532); test: HSF1 potentiators in luciferase reporter cells, confirmation, cell-based, NIH3T3, luminescence, dose retest (AID 435004); assay type: functional;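 note: stress induced by proteasome inhibitor MG132 added 30 min after compound; luciferase reporter driven by HSF1 response element in NIH3T3 cells; actives raise luminescence as potentiators of the MG132 stress response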
T1 sequence (P38532 whole entry): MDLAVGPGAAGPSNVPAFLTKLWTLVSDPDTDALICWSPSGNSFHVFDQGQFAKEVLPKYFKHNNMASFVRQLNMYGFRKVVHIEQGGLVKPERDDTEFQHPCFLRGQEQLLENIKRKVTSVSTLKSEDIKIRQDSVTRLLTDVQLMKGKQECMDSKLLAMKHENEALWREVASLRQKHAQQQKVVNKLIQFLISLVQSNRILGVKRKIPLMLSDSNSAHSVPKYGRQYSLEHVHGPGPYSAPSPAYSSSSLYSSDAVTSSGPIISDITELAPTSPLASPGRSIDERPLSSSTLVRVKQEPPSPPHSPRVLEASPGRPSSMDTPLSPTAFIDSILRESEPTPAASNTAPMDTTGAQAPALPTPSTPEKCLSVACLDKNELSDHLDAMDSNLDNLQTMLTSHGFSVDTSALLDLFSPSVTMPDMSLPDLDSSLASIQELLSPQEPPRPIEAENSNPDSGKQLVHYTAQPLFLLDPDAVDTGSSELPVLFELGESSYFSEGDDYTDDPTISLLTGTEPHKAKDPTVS

[3] = cytotoxicity toward NIH3T3 fibroblasts, dose response, counter-screen, cell-based, ATP luminescence, mouse fibroblasts (AID 2010); assay type: functional;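 note: cells exposed to compound for about 90 hours before reading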
[4] = inhibitors of intracellular T. cruzi replication, confirmation, NIH3T3 host cells, beta-gal luminescence (AID 2044); assay type: functional, cell-based;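 note: intracellular parasites grown in NIH/3T3 mouse fibroblasts as host cells; luminescent beta-galactosidase reporter signal from transgenic T. cruzi replicating inside host cells; inhibitors lower the luminescence signal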
[5] = biological target: T2, Corticotropin-releasing factor receptor 2/Corticotropin-releasing factor-binding protein (Homo sapiens, UniProt P24387+Q13324); test: activators of CRF receptor 2 with binding protein – uHTS hits, confirmation (AID 602473); assay type: functional; conditions: read-out: EC50_Mean
T2 sequence (Q13324 whole entry): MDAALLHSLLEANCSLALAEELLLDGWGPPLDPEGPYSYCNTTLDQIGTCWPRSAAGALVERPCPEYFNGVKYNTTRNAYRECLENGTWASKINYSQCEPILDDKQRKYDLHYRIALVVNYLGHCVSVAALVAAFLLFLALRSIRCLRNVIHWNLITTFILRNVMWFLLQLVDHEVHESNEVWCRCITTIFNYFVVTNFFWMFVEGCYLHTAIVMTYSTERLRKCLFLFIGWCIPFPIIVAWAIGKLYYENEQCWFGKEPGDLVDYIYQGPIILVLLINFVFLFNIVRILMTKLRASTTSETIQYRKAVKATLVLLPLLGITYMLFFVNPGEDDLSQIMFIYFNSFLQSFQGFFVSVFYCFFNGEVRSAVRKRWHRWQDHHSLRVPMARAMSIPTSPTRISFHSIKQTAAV
T2 sequence (P24387 whole entry): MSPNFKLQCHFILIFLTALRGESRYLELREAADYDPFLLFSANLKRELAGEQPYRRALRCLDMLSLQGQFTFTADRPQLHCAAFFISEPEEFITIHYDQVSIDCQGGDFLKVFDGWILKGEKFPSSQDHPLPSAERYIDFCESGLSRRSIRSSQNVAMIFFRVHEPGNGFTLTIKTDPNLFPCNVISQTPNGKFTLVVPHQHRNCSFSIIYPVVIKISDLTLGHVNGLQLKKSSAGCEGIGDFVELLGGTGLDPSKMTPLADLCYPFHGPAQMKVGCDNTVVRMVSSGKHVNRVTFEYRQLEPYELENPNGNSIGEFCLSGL

[6] = biological target: T1, Heat shock factor protein 1; test: inhibition of MG132-induced HSE-luciferase signal, confirmation, cell-based, NIH3T3, luminescence, dose retest (AID 2382); assay type: functional;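 note: NIH3T3 fibroblasts with HSF1-driven luciferase reporter stressed by proteasome inhibitor MG132; luminescence from HSF1-driven luciferase expression after 8 hours of MG132 stress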
[7] = biological target: T2, Corticotropin-releasing factor receptor 2/Corticotropin-releasing factor-binding protein; test: Dose Response confirmation of uHTS hits for small molecule antagonists of the CRF-binding protein and CRF-R2 receptor complex.; assay type: functional; conditions: read-out: IC50_Mean
[8] = biological target: T3, RNA-binding protein pos-1 (Caenorhabditis elegans, UniProt G5EF15); test: inhibitors of POS-1/mex-3 RNA binding, dose response, biochemical, fluorescence polarization (AID 1964);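 note: purified POS-1 fused to maltose binding protein made in E. coli; potency of compounds blocking POS-1 binding to fluorescent RNA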
T3 sequence (G5EF15 whole entry): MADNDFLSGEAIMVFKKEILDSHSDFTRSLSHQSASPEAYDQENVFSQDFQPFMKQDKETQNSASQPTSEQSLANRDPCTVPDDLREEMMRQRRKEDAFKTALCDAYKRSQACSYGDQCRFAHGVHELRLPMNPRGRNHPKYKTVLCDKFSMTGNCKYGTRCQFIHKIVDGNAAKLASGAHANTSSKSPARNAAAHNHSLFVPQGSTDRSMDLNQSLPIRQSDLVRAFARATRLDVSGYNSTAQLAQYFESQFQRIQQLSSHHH

[9] = biological target: T4, Zinc finger protein mex-5 (Caenorhabditis elegans, UniProt Q9XUB2); test: MEX-5/TCR-2 RNA interaction inhibitors, dose response, biochemical, C. elegans, fluorescence polarization (AID 1960)
T4 sequence (Q9XUB2 whole entry): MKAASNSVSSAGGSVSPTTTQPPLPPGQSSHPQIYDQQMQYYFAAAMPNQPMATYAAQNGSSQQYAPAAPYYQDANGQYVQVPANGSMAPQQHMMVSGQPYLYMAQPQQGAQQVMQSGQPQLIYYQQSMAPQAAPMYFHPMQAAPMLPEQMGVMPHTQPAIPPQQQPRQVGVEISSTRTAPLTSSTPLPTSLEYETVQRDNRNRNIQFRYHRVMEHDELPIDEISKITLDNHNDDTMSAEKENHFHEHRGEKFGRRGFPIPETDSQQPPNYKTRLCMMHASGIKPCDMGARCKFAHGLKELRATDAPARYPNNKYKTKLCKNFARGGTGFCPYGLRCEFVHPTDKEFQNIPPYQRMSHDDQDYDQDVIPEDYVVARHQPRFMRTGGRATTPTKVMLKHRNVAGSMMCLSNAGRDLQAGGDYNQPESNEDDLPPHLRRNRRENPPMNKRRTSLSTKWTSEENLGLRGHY

[10] = NIH-3T3 fibroblast cytotoxicity, dose response, cytotoxicity control, cell-based, fluorescence, Alamar Blue, secondary assay (AID 2327); assay type: functional;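 note: NIH-3T3 mouse fibroblasts cultured with fluconazole at 8 µg/mL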
[11] = C. albicans growth with fluconazole, confirmation, fluorescence, retest (AID 2467); assay type: functional, cell-based

For Cc1ccccc1NS(=O)(=O)c1cccc2nonc12, the AC50 [1] was 8.51 µM (active).
For COc1cc(NC(=O)COC(=O)c2ccc(C)c(S(=O)(=O)N3CCCCC3)c2)c(C)cc1[N+](=O)[O-], the EC50 [2] was > 260 µM (inactive).
In the case of Cn1c(S)nnc1CCNC(=O)c1ccc(Cl)cc1, the AC50 [1] was 1.54 µM (active).
For Cc1cccc(N2CCN(c3cccc(C)c3)C2c2cccnc2)c1, the EC50 [2] was > 260 µM (inactive), the EC50 [3] was 4.39 µM (active) and the EC50 [4] was 0.165 µM (active).
For O=C(Nc1ccccc1)C1Cc2ccccc2CN1C(=O)c1ccco1 (configuration not stated), the AC50 [1] was 12.9 µM (active).
In the case of NC(=O)c1nn(-c2ccccc2)nc1NC(=O)CN1CCCCC1, the EC50 [2] was > 260 µM (inactive).
For CC(C)CN(CC(C)C)C(S)=NC1CCCCC1, the EC50 [5] was > 53 µM (inactive), the EC50 [6] was 17 µM (active) and the IC50 [7] was > 47.1 µM (inactive).
For Cc1ccc(-c2nn(C)c(=O)c3ccccc23)cc1S(=O)(=O)NCCN(C)C, the EC50 [6] was > 195 µM (not active).
For O=C(NC(=S)Nc1ccc2oc(=O)ccc2c1)c1cc2ccccc2o1, the EC50 [6] was > 195 µM (not active).
With O=C(C1CCCO1)N1CCC2(CC1)OCCO2 (configuration not stated) the EC50 [6] was > 195 µM (not active).
For CN1CCC(=NNc2ccc(S(=O)(=O)N3CCOCC3)cc2[N+](=O)[O-])CC1, the EC50 [2] was > 260 µM (inactive).
For CCC1CCCCN1C(=O)c1cc2c(=O)n3cccc(C)c3nc2s1 (configuration not stated), the EC50 [6] was > 195 µM (not active).
With Cc1nonc1OCCNCCNc1ccc([N+](=O)[O-])cc1Cl the EC50 [2] was > 260 µM (inactive).
With CN(C)C=O.COc1ccc(/C=C/c2nc3ccccc3c(=O)n2-c2cccc(C(=O)O)c2)cc1 the EC50 [6] was 22.7 µM (active).
With O=C1N=C(c2ccccc2)C(c2ccccc2)N1 (configuration not stated) the AC50 [1] was 0.318 µM (active).
For O=C(O)CCc1ccc(-c2cccs2)n1NC(=O)c1ccccc1Br, the AC50 [1] was 6.95 µM (active).
With Cc1ccc(-c2nnn[nH]2)cc1 the EC50 [2] was > 260 µM (inactive).
For O=C(NCC1CCCO1)c1nn2c(C(F)(F)F)cc(-c3cc(Br)cs3)nc2c1Br (configuration not stated), the EC50 [2] was > 260 µM (inactive), the EC50 [8] was > 300 µM (not active) and the EC50 [9] was > 300 µM (inconclusive).
With Cc1ccc(Nc2nc(CSc3nnnn3C)cs2)cc1 the AC50 [1] was 1.54 µM (active).
With COc1ccc(CC(=O)N2CCN=C2SCc2ccc([N+](=O)[O-])cc2)cc1 the AC50 [1] was < 0.005 µM (active).
In the case of Cc1ccc(Nc2nc(CSc3nnc(-c4ccncc4)n3-c3ccccc3C)cs2)cc1, the EC50 [3] was > 60 µM (inconclusive), the EC50 [10] was > 160 µM (inactive) and the EC50 [11] was 4.95 µM (active). For the same compound, the EC50 [4] was 2.47 µM (active).
With O=C(Nc1cccn(Cc2c(Cl)cccc2Cl)c1=O)c1ccccc1Cl the EC50 [2] was > 260 µM (inactive).
In the case of C=CCN1C(=O)NC(=O)/C(=C(/C)NC2CCN(Cc3ccccc3)CC2)C1=O, the EC50 [6] was > 195 µM (not active).
In the case of Cc1cc(NC(=O)COC(=O)[C@H](C)NC(=O)c2ccccc2)no1, the EC50 [6] was > 195 µM (not active).
For CC(Sc1nc(-c2ccccc2)cc(C(F)(F)F)n1)C(=O)Nc1sc2c(c1C#N)CCC2 (configuration not stated), the EC50 [2] was > 260 µM (inactive), the EC50 [3] was > 60 µM (not active) and the EC50 [4] was 0.137 µM (active).
For CN(C)CCNC(=O)C(=O)NCC(c1ccc2c(c1)OCO2)N1CCN(c2ccc(F)cc2)CC1 (configuration not stated), the AC50 [1] was 0.439 µM (active).
In the case of N#Cc1ccc(OCCN2CCc3ccccc3C2)cc1, the EC50 [2] was > 260 µM (inactive).
In the case of Cc1ccc(CC2SC(N=C(N)N)=NC2=O)cc1 (configuration not stated), the EC50 [2] was > 260 µM (inactive).
In the case of CC1=NN(c2ccccc2)C(=O)C1c1ccccc1 (configuration not stated), the AC50 [1] was 2.86 µM (active).
In the case of CCN(CC)S(=O)(=O)c1cccc(C(=O)N/N=C/c2cc(OC)c(O)c(OC)c2)c1, the AC50 [1] was 0.21 µM (active).
In the case of O=C(N/N=C/c1cccc(C(F)(F)F)c1)c1ccc(O)cc1, the EC50 [6] was > 195 µM (not active).
